Experimental data as given in patent publication US11613750B2, “Methods of reducing virus molecule levels” (priority 2019, dated 2023).

Assays:
HBsAg = conditions: HepG2.2.15 cells; for HBsAg level, dose response: FIG. 5A; for EC50: read-out: EC50, Extracell. HBsAg reduction
Method: (§1) Cell viability was assessed by ATP levels determined using the CellTiter-Glo reagent and the results normalized to the level in mock-treated cells. HBsAg levels were quantified using ELISA and the data normalized to the level in the mock-treated cells.
The cellular proteins GRP78/BIP, SRSF1, HNRNPA2B1, RPLP1, and RPLP2 were identified as having roles in HBV replication and infection. Various siRNAs and combinations thereof targeting the RNAs encoding these proteins were contacted with HepG2.2.15 cells at a final concentration of 7.5 nM.
The EC50 values of several siRNAs and combinations of siRNAs targeting HNRNPA2B1, GRP78, RPLP1, RPLP2, and/or SRSF1 were determined with respect to the ability to reduce HBsAg levels in HepG2.2.15 cells.
(§2) The ability of siRNAs targeting host factors that then results in the reduced production of multiple HBV molecules was evaluated by quantifying the amount of HBsAg, HBeAg, and Core protein produced by HepG2.2.15 cells after contacting with 10 nM of siRNAs that target HNRNPA2B1, GRP78, RPLP1, RPLP2, and SRSF1. We also contacted the cells with 5 nM of each set of siRNAs that targets both RPLP1 and RPLP2. The level of HBsAg, HBeAg, and Core were all determined using ELISAs.
(§3) The library of siRNAs of Example A5 were tested for the reduction of HBsAg secreted by HepG2.2.15 cells and in HBV virions.

HepG2.2.15 cells = assay: HepG2.2.15 cell viability, CellTiter-Glo; conditions: for CC50: read-out: CC50, HepG2.2.15 cell viability, highest concentration tested 80 nM; for cytotoxicity / cell viability, siRNA library: up to the highest concentration tested, 80 nM
Method: as §1
The effects on cell viability were quantified using the CellTiter-Glo reagent. All data were normalized to the amount of protein produced by mock-treated cells.
as §3

HBeAg = conditions: for HBeAg reduction HepG2.2.15 cells: 10 nM siRNA transfected into cells; for HBeAg level, siRNA library: HepG2.2.15 cells, Example A6, FIG. 5A
Method: HBeAg in the cell culture media was assessed using ELISAs.
as §2, §3

RPLP1 mRNA = assay: Target mRNA reduction by RT-qPCR in HepG2.2.15 cells; type: cell-based, human; conditions: 10 nM siRNA
Description: (§4) The siRNAs identified as described in Example A6 should function by a mechanism that includes being loaded in the RISC complex to cleave the cognate mRNA, leading to the degradation of the mRNA. To examine whether the siRNAs are effective in reducing the target mRNA, we used reverse transcription coupled with quantitative polymerase chain reaction (RT-qPCR) to assess the level of the target mRNA in HepG2.2.15 cells. All 32 siRNAs described in Table 2 reduced the mRNA by more than 75% (Table 3).

RPLP1 protein = assay: Target protein reduction by Western blot in HepG2.2.15 cells; type: cell-based, human; conditions: 10 nM siRNA, 72 h
Method: (§5) The host factors likely function in viral infection as proteins. Therefore, we determined whether the siRNAs could decrease the amounts of the target protein. Cell transfected with 10 nM of each siRNA for 72 h were lysed and the target proteins identified using Western blots probed with target-specific antibodies. The effective siRNAs described in Table 3 reduced the levels of the proteins by between 28 and 92% of the mock-treated samples. The reduction in the proteins is less than the reduction of the target mRNA, likely due to the proteins have prolonged half-life and that more time is needed for their degradation. […] We reason that this is due to RPLP1 and RPLP2 functioning as heterodimers such that a decrease of one protein increases the vulnerability of the other protein to degradation. Similar concomitant decrease of the proteins was reported by Campos et al. (17). Finally, the levels of two cellular proteins that are not targeted by the siRNAs, P54nrb and GAPDH, were unaffected.

HCoV-OC43 = assay: OC43 virion RNA, Branched DNA assay, infected HCT8 cells; type: cell-based, human coronavirus OC43; conditions: for OC43 vRNA reduction siRNA and siGRP78: 10 nM siRNA along with 10 nM of siRNA targeting GRP78, HCT8 cells; for OC43 vRNA reduction: 10 nM siRNA, HCT8 cells
Method: The siRNAs were transfected in the HCT8 cells at a final concentration of 10 nM. A positive control for the inhibition of Coronavirus infection, Remdesivir (Rem), was used at 0.9 μM. The virion RNAs (vRNAs) were quantified using a Branched DNA assay specific for OC43 RNA.
The two siRNAs are those referred to by compound number (see Table 2) in the horizontal bar, along with siRNA targeting GRP78, siGRP78. A positive control for the inhibition of Coronavirus infection, Remdesivir (Rem), was used at 0.9 μM. The vRNAs were quantified using a Branched DNA assay specific for OC43 RNA.
The siRNAs listed in Table 2 were transfected into human colon epithelial HCT8 cells and the amount of OC43 virion produced was quantified. In these assays, the OC43 vRNA was quantified using a Branched DNA assay (QuantiGene gene expression assay: ThermoFisher). As a positive inhibitory control, the infected cells were treated with Remdesivir. […] Examples of the inhibition of OC43 vRNA are illustrated in FIG. 5A.
A combination of siRNAs targeting the host factor should more robustly reduce OC43 virion production. To illustrate this, HCT8 cells were transfected with 10 nM of siRNAs from Table 2 along with 10 nM of siRNA targeting GRP78. The virion RNAs produced were quantified using the Branched DNA assay. […] A combination of siRNAs targeting host factors GRP78, SRSF1, RPLP1 and RPLP2 can lead to significant reduction in the production of human Coronavirus virion RNA from infected cells.

RPLP2 mRNA = assay: Target mRNA reduction by RT-qPCR in HepG2.2.15 cells; type: cell-based, human; conditions: 10 nM siRNA
Description: as §4

RPLP2 protein = assay: Target protein reduction by Western blot in HepG2.2.15 cells; type: cell-based, human; conditions: 10 nM siRNA, 72 h
Method: as §5

Row | Substance | HBsAg level, dose response (HBsAg) | EC50 (HBsAg) [nM] | CC50 (HepG2.2.15 cells) [nM] | cytotoxicity / cell viability, siRNA library (HepG2.2.15 cells) | HBeAg reduction HepG2.2.15 cells (HBeAg) [%] | HBeAg level, siRNA library (HBeAg) | Target RNA reduction in HepG2.2.15 cells (RPLP1 mRNA) [%] | Target protein reduction in HepG2.2.15 cells (RPLP1 protein) [%] | OC43 vRNA reduction siRNA and siGRP78 (HCoV-OC43) [%] | OC43 vRNA reduction (HCoV-OC43) [%] | Target RNA reduction in HepG2.2.15 cells (RPLP2 mRNA) [%] | Target protein reduction in HepG2.2.15 cells (RPLP2 protein) [%]
1 | 24 (GCAAAGAAAGAAGAAUCCGTTCGGAUUCUUCUUUCUUUGCTT; siRNA; Self-complementary hairpin strand, chemistry not given here, further chemistry not given here; listed as Homo sapiens) [compound 24] | dose-dependent reduction of HBV S-antigen (HBsAg) | 0.359 | > 80 | without affecting cell viability | 66 ± 2 | inhibited the levels of HBsAg and HBeAg | 80 ± 1 | 48 ± 3 | 94 ± 4 | 89 ± 8 | – | –
2 | 31 (UUUGGCCUGGCUUGUUUGCAAUUUUGCAAACAAGCCAGGCCAAAUU; siRNA; Self-complementary hairpin strand, chemistry not given here, further chemistry not given here; listed as Homo sapiens) [compound 31] | – | 0.012 | > 80 | – | – | – | 84 ± 4 | 37 ± 7 | 82 ± 6 | 82 ± 4 | – | –
3 | 29 (UGUCUCCGAGCUCGCCUGCAUUUAUGCAGGCGAGCUCGGAGACAUU; siRNA; Self-complementary hairpin strand, chemistry not given here, further chemistry not given here; listed as Homo sapiens) [compound 29] | – | 0.386 | > 80 | – | 58 ± 3 | – | 75 ± 1 | 52 ± 4 | 92 ± 3 | 87 ± 10 | – | –
4 | 33 (UUGGUCUUUUUGACUAAACCUUUAGGUUUAGUCAAAAAGACCAAUU; siRNA; Self-complementary hairpin strand, chemistry not given here, further chemistry not given here; listed as Homo sapiens) [compound 33] | – | 1.54 | > 80 | – | – | – | 83 ± 6 | 28 ± 4 | – | – | – | –
5 | 44 (UGAGCUGAAUGGAAAAAACAUUUAUGUUUUUUCCAUUCAGCUCAUU; siRNA; Self-complementary hairpin strand, chemistry not given here, further chemistry not given here; listed as Homo sapiens) [compound 44] | – | 0.084 | > 80 | – | 30 ± 4 | – | – | – | 92 ± 2 | – | 99 ± 1 | 59 ± 11
6 | 47 (UGGCCUUUUUGAUUAAAUUTTAAUUUAAUCAAAAAGGCCAAA; siRNA; Self-complementary hairpin strand, chemistry not given here, further chemistry not given here; listed as Homo sapiens) [compound 47] | – | 0.07 | > 80 | – | 38 ± 5 | – | – | – | 89 ± 2 | – | 97 ± 3 | 67 ± 5
7 | 39 (AGAGGAGAAGAAAGAUGAGAAUUUUCUCAUCUUUCUUCUCCUCUUU; siRNA; Self-complementary hairpin strand, chemistry not given here, further chemistry not given here; listed as Homo sapiens) [compound 39] | – | 0.103 | > 80 | – | 59 ± 4 | – | – | – | 86 ± 6 | 91 ± 2 | 96 ± 1 | 48 ± 9
8 | 34 (GCUGAAUGGAAAAAACAUUGATTAAUGUUUUUUCCAUUCAGCUCTT; siRNA; Self-complementary hairpin strand, chemistry not given here, further chemistry not given here; listed as Homo sapiens) [compound 34] | dose-dependent reduction of HBV S-antigen (HBsAg) | 0.15 | > 80 | without affecting cell viability | 74 ± 4 | inhibited the levels of HBsAg and HBeAg | – | – | 86 ± 5 | 86 ± 3 | 93 ± 1 | 62.5 ± 3
9 | 41 (AUGGGAUUUGGCCUUUUUGAUUUAUCAAAAAGGCCAAAUCCCAUUU; siRNA; Self-complementary hairpin strand, chemistry not given here, further chemistry not given here; listed as Homo sapiens) [compound 41] | – | 0.208 | > 80 | – | 40 ± 4 | – | – | – | 81 ± 7 | 89 ± 5 | 97 ± 1 | 58 ± 2
10 | 52 (CAAGGUUAUCAGUGUGCUGTTCAGCACACUGAUAACCUUGTT; siRNA; Self-complementary hairpin strand, chemistry not given here, further chemistry not given here; listed as Homo sapiens) [compound 52] | – | 0.06 | > 80 | – | 54 ± 5 | – | – | – | 91 ± 2 | – | 98 ± 1 | 58 ± 1
11 | 36 (CCUUUUUGAUUAAAUUCCUGCTTAGGAAUUUAAUCAAAAAGGCCTT; siRNA; Self-complementary hairpin strand, chemistry not given here, further chemistry not given here; listed as Homo sapiens) [compound 36] | – | 9.2 | > 80 | – | 26 ± 5 | – | – | – | 87 ± 6 | – | 94 ± 1 | 57 ± 3
